The results in this text go back to US11739101B2, “Bifunctional degraders of hematopoietic progenitor kinase and therapeutic uses thereof” (Nurix Therapeutics, Inc., priority 2020, dated 2023).

Usually Dmax stands for the greatest extent of degradation seen. Higher therefore signals deep degradation.

The target in the assay is T1, HPK1 (Homo sapiens, UniProt Q92918).
T1 construct: A HiBiT tag was introduced by CRISPR on the N terminus of HPK1 in Jurkat cells; host or cells: Jurkat (ATCC TIB-152), monoclonal CRISPR HiBiT knock-in line
T1 sequence (Q92918 whole entry): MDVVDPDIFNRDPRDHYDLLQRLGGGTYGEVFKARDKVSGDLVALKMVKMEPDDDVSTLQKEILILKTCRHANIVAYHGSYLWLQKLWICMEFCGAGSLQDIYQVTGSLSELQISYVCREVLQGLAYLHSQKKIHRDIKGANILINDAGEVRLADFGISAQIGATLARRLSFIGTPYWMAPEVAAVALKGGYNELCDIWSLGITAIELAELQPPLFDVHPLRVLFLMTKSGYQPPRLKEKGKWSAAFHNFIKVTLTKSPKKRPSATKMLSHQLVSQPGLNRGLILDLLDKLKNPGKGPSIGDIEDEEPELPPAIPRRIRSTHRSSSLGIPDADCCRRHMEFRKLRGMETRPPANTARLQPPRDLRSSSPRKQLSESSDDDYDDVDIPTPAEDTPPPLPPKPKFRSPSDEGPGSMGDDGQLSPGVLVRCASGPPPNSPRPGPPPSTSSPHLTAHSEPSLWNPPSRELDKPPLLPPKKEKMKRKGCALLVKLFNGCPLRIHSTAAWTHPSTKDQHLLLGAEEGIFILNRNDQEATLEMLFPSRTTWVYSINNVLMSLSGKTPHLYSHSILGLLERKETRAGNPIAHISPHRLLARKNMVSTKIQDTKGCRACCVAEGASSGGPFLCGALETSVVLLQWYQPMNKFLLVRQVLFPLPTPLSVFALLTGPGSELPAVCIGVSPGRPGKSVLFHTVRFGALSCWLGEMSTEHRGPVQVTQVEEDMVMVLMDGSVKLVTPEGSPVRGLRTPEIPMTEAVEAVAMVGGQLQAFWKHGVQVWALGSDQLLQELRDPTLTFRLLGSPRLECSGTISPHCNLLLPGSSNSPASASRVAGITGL
Briefly: HPK1 Cellular HiBiT Degradation Assay. The assay is classed as cell-based. The note with it: HiBiT-tagged HPK1 Jurkat cells, 24 hours, 10 uM to 0.1 nM; Dmax = 100 minus lowest % HPK1 remaining vs DMSO vehicle. In a few lines: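 Dmax is derived from four-parameter curves of % HPK1 remaining, as 100 minus the lowest value, normalized to DMSO-treated cells with parental Jurkat background subtracted. HiBiT-HPK1 knock-in Jurkat cells got compound for 24 hours (final 10 uM to 0.1 nM, 11 points) before lytic HiBiT luminescence. Cytotoxicity was checked on parallel CellTiter-Glo plates.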
A general note: The HiBiT peptide binds its large partner to form an active luciferase.

As to `Cc1cc(F)c(Nc2nc(-c3ccc4c(c3)N([C@H]3C[C@@H](N5CCCCC5)C3)C(=O)C43CCN(C(=O)C4CCN(C(=O)C5CCC(Nc6cccc7c6C(=O)N(C6CCC(=O)NC6=O)C7=O)CC5)C4)CC3)cc3ncn(C(C)C)c23)cc1C(=O)NC(C)C` (stereo partly drawn) [Example 26, 4-fluoro-2-methyl-5-[(6-{2-oxo-1′-[1-[(1R,4R)-4-({2-[2,6-dioxopiperidin-3-yl]-1,3-dioxo-2,3-dihydro-1H-isoindol-4-yl}amino)cyclohexanecarbonyl]pyrrolidine-3-carbonyl]-1-[(1s,3s)-3-(piperidin-1-yl)cyclobutyl]-1,2-dihydrospiro[indole-3,4′-piperidin]-6-yl}-3-(propan-2-yl)-3H-imidazo[4,5-c]pyridin-4-yl)amino]-N-(propan-2-yl)benzamide], the Dmax is 45 to 65%. To `Cc1cc(F)c(Nc2nc(-c3ccc4c(c3)N([C@H]3C[C@@H](N5CCCCC5)C3)C(=O)C43CCN(C(=O)C4CCN(C(=O)[C@H]5CC[C@@H](Nc6cccc7c6C(=O)N(C6CCC(=O)NC6=O)C7=O)CC5)C4)CC3)cc3ncn(C(C)C)c23)cc1C(=O)NC(C)C` (stereo partly drawn) [Example 27, 4-fluoro-2-methyl-5-[(6-{2-oxo-1-[(1s,3s)-3-(piperidin-1-yl)cyclobutyl]-1′-[1-[(1S,4S)-4-({2-[2,6-dioxopiperidin-3-yl]-1,3-dioxo-2,3-dihydro-1H-isoindol-4-yl}amino)cyclohexanecarbonyl]pyrrolidine-3-carbonyl]-1,2-dihydrospiro[indole-3,4′-piperidin]-6-yl}-3-(propan-2-yl)-3H-imidazo[4,5-c]pyridin-4-yl)amino]-N-(propan-2-yl)benzamide] belongs less than 45%.

Regarding `Cc1cc(F)c(Nc2nc(-c3ccc4c(c3)N(C3CC(N5CCCCC5)C3)C(=O)C43CCN(C(=O)CN4CC5(CCN(c6ccc7c(c6)C(=O)N(C6CCC(=O)NC6=O)C7=O)CC5)C4)CC3)cc3ncn(C(C)C)c23)cc1C(=O)NC(C)C` (stereo not drawn) [Example 28, 5-[(6-{1′-[2-(7-{2-[2,6-dioxopiperidin-3-yl]-1,3-dioxo-2,3-dihydro-1H-isoindol-5-yl}-2,7-diazaspiro[3.5]nonan-2-yl)acetyl]-2-oxo-1-[(1s,3s)-3-(piperidin-1-yl)cyclobutyl]-1,2-dihydrospiro[indole-3,4′-piperidin]-6-yl}-3-(propan-2-yl)-3H-imidazo[4,5-c]pyridin-4-yl)amino]-4-fluoro-2-methyl-N-(propan-2-yl)benzamide], the Dmax is less than 45%.

In the case of `Cc1cc(F)c(Nc2nc(-c3ccc4c(c3)N([C@H]3C[C@@H](N5CCCCC5)C3)C(=O)C43CCN(C(=O)CC4CCCN(CC5CCN(c6ccc7c(c6)C(=O)N(C6CCC(=O)NC6=O)C7=O)C5)C4)CC3)cc3ncn(C(C)C)c23)cc1C(=O)NC(C)C` (stereo partly drawn) [Example 29, 5-{[6-(1′-{2-[(3S)-1-({1-[2-(2,6-dioxopiperidin-3-yl)-1,3-dioxo-2,3-dihydro-1H-isoindol-5-yl]pyrrolidin-3-yl}Methyl)piperidin-3-yl]acetyl}-2-oxo-1-[(1s,3s)-3-(piperidin-1-yl)cyclobutyl]-1,2-dihydrospiro[indole-3,4′-piperidin]-6-yl)-3-(propan-2-yl)-3H-imidazo[4,5-c]pyridin-4-yl]amino}-4-fluoro-2-methyl-N-(propan-2-yl)benzamide], the Dmax is 45 to 65%. To `Cc1cc(F)c(Nc2nc(-c3ccc4c(c3)N([C@H]3C[C@@H](N5CCCCC5)C3)C(=O)C43CCN(C(=O)C4CCN(C(=O)C5CC(Nc6cccc7c6C(=O)N(C6CCC(=O)NC6=O)C7=O)C5)C4)CC3)cc3ncn(C(C)C)c23)cc1C(=O)NC(C)C` (stereo partly drawn) [Example 30, 4-fluoro-2-methyl-5-[(6-{2-oxo-1-[(1s,3s)-3-(piperidin-1-yl)cyclobutyl]-1′-[1-[(1s,3s)-3-({2-[2,6-dioxopiperidin-3-yl]-1,3-dioxo-2,3-dihydro-1H-isoindol-4-yl}amino)cyclobutanecarbonyl]pyrrolidine-3-carbonyl]-1,2-dihydrospiro[indole-3,4′-piperidin]-6-yl}-3-(propan-2-yl)-3H-imidazo[4,5-c]pyridin-4-yl)amino]-N-(propan-2-yl)benzamide] belongs less than 45%.

The compound `Cc1cc(F)c(Nc2nc(-c3ccc4c(c3)N([C@H]3C[C@@H](N5CCCCC5)C3)C(=O)C43CCN(C(=O)CC4CCCN(CC5CCN(c6cccc7c6C(=O)N(C6CCC(=O)NC6=O)C7=O)C5)C4)CC3)cc3ncn(C(C)C)c23)cc1C(=O)NC(C)C` (stereo partly drawn) [Example 31, 5-{[6-(1′-{2-[(3S)-1-{[1-{2-[2,6-dioxopiperidin-3-yl]-1,3-dioxo-2,3-dihydro-1H-isoindol-4-yl}pyrrolidin-3-yl]methyl}piperidin-3-yl]acetyl}-2-oxo-1-[(1s,3s)-3-(piperidin-1-yl)cyclobutyl]-1,2-dihydrospiro[indole-3,4′-piperidin]-6-yl)-3-(propan-2-yl)-3H-imidazo[4,5-c]pyridin-4-yl]amino}-4-fluoro-2-methyl-N-(propan-2-yl)benzamide] came in with a Dmax of more than 65%.

`Cc1cc(F)c(Nc2nc(-c3ccc4c(c3)N([C@H]3C[C@@H](N5CCCCC5)C3)C(=O)C43CCN(C(=O)C4CCN(C(=O)C[C@@H]5CCCN(c6cccc7c6C(=O)N(C6CCC(=O)NC6=O)C7=O)C5)C4)CC3)cc3ncn(C(C)C)c23)cc1C(=O)NC(C)C` (stereo partly drawn) [Example 32, 5-({6-[1′-(1-{2-[(3S)-1-{2-[2,6-dioxopiperidin-3-yl]-1,3-dioxo-2,3-dihydro-1H-isoindol-4-yl}piperidin-3-yl]acetyl}pyrrolidine-3-carbonyl)-2-oxo-1-[(1s,3s)-3-(piperidin-1-yl)cyclobutyl]-1,2-dihydrospiro[indole-3,4′-piperidin]-6-yl]-3-(propan-2-yl)-3H-imidazo[4,5-c]pyridin-4-yl}amino)-4-fluoro-2-methyl-N-(propan-2-yl)benzamide] gave a Dmax of less than 45%. With `Cc1cc(F)c(Nc2nc(-c3ccc4c(c3)N([C@H]3C[C@@H](N5CCCCC5)C3)C(=O)C43CCN(C(=O)C4CN(CC5CCN(c6cccc7c6C(=O)N(C6CCC(=O)NC6=O)C7=O)CC5)C4)CC3)cc3ncn(C(C)C)c23)cc1C(=O)NC(C)C` (stereo partly drawn) [Example 33, 5-{[6-(1′-{1-[(1-{2-[2,6-dioxopiperidin-3-yl]-1,3-dioxo-2,3-dihydro-1H-isoindol-4-yl}piperidin-4-yl)methyl]azetidine-3-carbonyl}-2-oxo-1-[(1s,3s)-3-(piperidin-1-yl)cyclobutyl]-1,2-dihydrospiro[indole-3,4′-piperidin]-6-yl)-3-(propan-2-yl)-3H-imidazo[4,5-c]pyridin-4-yl]amino}-4-fluoro-2-methyl-N-(propan-2-yl)benzamide] the figure was more than 65%. To `Cc1cc(F)c(Nc2nc(-c3ccc4c(c3)N([C@H]3C[C@@H](N5CCCCC5)C3)C(=O)C43CCN(C(=O)C4CN(C(=O)CC5CCN(c6cccc7c6C(=O)N(C6CCC(=O)NC6=O)C7=O)CC5)C4)CC3)cc3ncn(C(C)C)c23)cc1C(=O)NC(C)C` (stereo partly drawn) [Example 34, 5-{[6-(1′-{1-[2-(1-{2-[2,6-dioxopiperidin-3-yl]-1,3-dioxo-2,3-dihydro-1H-isoindol-4-yl}piperidin-4-yl)acetyl]azetidine-3-carbonyl}-2-oxo-1-[(1s,3s)-3-(piperidin-1-yl)cyclobutyl]-1,2-dihydrospiro[indole-3,4′-piperidin]-6-yl)-3-(propan-2-yl)-3H-imidazo[4,5-c]pyridin-4-yl]amino}-4-fluoro-2-methyl-N-(propan-2-yl)benzamide] belongs less than 45%; to `Cc1cc(F)c(Nc2nc(-c3ccc4c(c3)N([C@H]3C[C@@H](N5CCCCC5)C3)C(=O)C43CCN(C(=O)C4CN(CC5CCN(c6cccc7c6C(=O)N(C6CCC(=O)NC6=O)C7=O)C5)C4)CC3)cc3ncn(C(C)C)c23)cc1C(=O)NC(C)C` (stereo partly drawn) [Example 35, 5-({6-[1′-(1-{[1-{2-[2,6-dioxopiperidin-3-yl]-1,3-dioxo-2,3-dihydro-1H-isoindol-4-yl}pyrrolidin-3-yl]methyl}azetidine-3-carbonyl)-2-oxo-1-[(1s,3s)-3-(piperidin-1-yl)cyclobutyl]-1,2-dihydrospiro[indole-3,4′-piperidin]-6-yl]-3-(propan-2-yl)-3H-imidazo[4,5-c]pyridin-4-yl}amino)-4-fluoro-2-methyl-N-(propan-2-yl)benzamide], 45 to 65%. With `Cc1cc(F)c(Nc2nc(-c3ccc4c(c3)N([C@H]3C[C@@H](N5CCCCC5)C3)C(=O)C43CCN(C(=O)C4CCN(C(=O)CC5CCN(c6cccc7c6C(=O)N(C6CCC(=O)NC6=O)C7=O)CC5)CC4)CC3)cc3ncn(C(C)C)c23)cc1C(=O)NC(C)C` (stereo partly drawn) [Example 36, 5-{[6-(1′-{1-[2-(1-{2-[2,6-dioxopiperidin-3-yl]-1,3-dioxo-2,3-dihydro-1H-isoindol-4-yl}piperidin-4-yl)acetyl]piperidine-4-carbonyl}-2-oxo-1-[(1s,3s)-3-(piperidin-1-yl)cyclobutyl]-1,2-dihydrospiro[indole-3,4′-piperidin]-6-yl)-3-(propan-2-yl)-3H-imidazo[4,5-c]pyridin-4-yl]amino}-4-fluoro-2-methyl-N-(propan-2-yl)benzamide] the figure was less than 45%; with `Cc1cc(F)c(Nc2nc(-c3ccc4c(c3)N([C@H]3C[C@@H](N5CCCCC5)C3)C(=O)C43CCN(C(=O)C4CCN(CC5CCN(c6cccc7c6C(=O)N(C6CCC(=O)NC6=O)C7=O)CC5)CC4)CC3)cc3ncn(C(C)C)c23)cc1C(=O)NC(C)C` (stereo partly drawn) [Example 37, 5-{[6-(1′-{1-[(1-{2-[2,6-dioxopiperidin-3-yl]-1,3-dioxo-2,3-dihydro-1H-isoindol-4-yl}piperidin-4-yl)methyl]piperidine-4-carbonyl}-2-oxo-1-[(1s,3s)-3-(piperidin-1-yl)cyclobutyl]-1,2-dihydrospiro[indole-3,4′-piperidin]-6-yl)-3-(propan-2-yl)-3H-imidazo[4,5-c]pyridin-4-yl]amino}-4-fluoro-2-methyl-N-(propan-2-yl)benzamide], more than 65%.
